In ChEMBL document CHEMBL3988442, “University of Dundee, Small-Polar-MMV Screening Library” (2021):

Experiments:
[1] = microbe, parasite or virus in culture; conditions: Mycobacterium tuberculosis, 96 h, read-out: pIC50 (converted)
[2] = microbe, parasite or virus in culture; conditions: Mycobacterium tuberculosis, 72 h, read-out: pIC50 (converted)

SMILES	IC50 [1]	IC50 [2]
N#Cc1cccc(N2CCCC(CO)(Cc3ccccc3F)C2)n1 (configuration not stated)	> 50.1 µM	12.6 µM
CC(C)CN1C(=O)C(N)c2ccccc21 (configuration not stated)	> 501 µM	> 501 µM
CC(C)n1nnnc1SCCS(=O)(=O)c1ccccc1	164 µM	82.8 µM
O=C1NCC2(CCCN(C(=O)c3c[nH]nc3-c3cccs3)C2)O1 (configuration not stated)	> 50.1 µM	> 50.1 µM
Cn1nnnc1SCCOc1cccc(F)c1	87.9 µM	412 µM
CCCOC(=O)C(C)NC(=O)c1cccs1 (configuration not stated)	287 µM	249 µM
N#CCc1ccc(CN)cc1	135 µM	182 µM
COc1cccc(Cl)c1CN1CCCNCC1	251 µM	228 µM
c1csc(CCNc2nc(-c3ccncc3)nc3c2CCNCC3)c1	21.7 µM	46.2 µM
O=C(CCn1cc(Br)cn1)NCc1cccs1	109 µM	102 µM
CCNC(=O)NC(=O)CN(C)Cc1ccccc1	134 µM	171 µM
CC(C)CCOCCSc1nnnn1C	82.3 µM	155 µM
CC1CCCCN1S(=O)(=O)c1ccc(CCN)cc1 (configuration not stated)	> 501 µM	> 501 µM
FC(F)Sc1ccc(NCc2nnc(C3CC3)o2)cc1	46.7 µM	11.8 µM
Cn1cc(NC(=O)c2ccc(Br)s2)cc1C(N)=O	285 µM	341 µM
CCSC1=Nc2c(cnn2-c2ccc(Cl)cc2)C2=NCCCN12	17.1 µM	12.8 µM
OCC(CO)Nc1ccc2c(Cl)ccc(Cl)c2n1	> 50.1 µM	> 50.1 µM
COCC1CCN(C(=O)c2cc(C3CC3)on2)CC1	26.5 µM	> 501 µM
Cc1ccccc1CN1CCCN(S(=O)(=O)N(C)C2CCCCC2)CC1	> 50.1 µM	> 50.1 µM
COc1cccc(Nc2ccc(N)nc2)c1	241 µM	128 µM
Cc1ccoc1C(=O)N(C)Cc1nc(C(C)C)no1	179 µM	> 501 µM
O=C1CCC(Nc2nc(-c3ccccc3)ns2)CN1 (configuration not stated)	286 µM	> 501 µM

SMILES	IC50 [1]	IC50 [2]
COc1cccc(CNCc2cccnc2-n2cccn2)c1OC	> 50.1 µM	> 50.1 µM
Cc1ccc(S(=O)(=O)NCCN)cc1C(F)(F)F	> 501 µM	102 µM
NCCS(=O)(=O)N1CCc2ccccc21	240 µM	149 µM
Cc1ccc(NCc2ncc[nH]2)c(F)c1	> 501 µM	216 µM
CCOc1ccc(Cn2nc(COC)oc2=O)nc1	19.1 µM	246 µM
CCc1nn(C)c(Cl)c1CN1CCN(c2ccc(C(N)=O)cn2)CC1	> 50.1 µM	> 50.1 µM
CC(C)n1ccc(CC(=O)N2CCCC2)n1	> 501 µM	> 501 µM
CN(C)C1(CN)Cc2ccccc2C1	127 µM	81.5 µM
CCSc1nc2ccccc2c(=O)n1OCC(=O)OC	> 50.1 µM	24.9 µM
CC1CCCCN1C(=O)COCc1nc(-c2ccncc2)no1 (configuration not stated)	> 50.1 µM	> 50.1 µM
COc1ccc(COCC(=O)N2CCCC(n3cncn3)C2)cc1 (configuration not stated)	> 50.1 µM	> 50.1 µM
CCc1ccc(C(=O)NC(C)c2cccnc2)o1 (configuration not stated)	> 501 µM	> 501 µM
CCC[C@@H]1CN(Cc2ccc3c(c2)OCCO3)C[C@H]1C(=O)O	> 50.1 µM	> 50.1 µM
CCOC1CCN(CCc2nc(-c3cccc(Cl)c3)no2)CC1	28.2 µM	32.4 µM
CCOCCC(=O)N(C)Cc1cc(C(C)C)no1	372 µM	169 µM
CCS(=O)(=O)NCCSc1nc2cc(F)c(F)cc2[nH]1	448 µM	468 µM
CC(C)c1cc(C(=O)N2CCN(Cc3ccsc3)CC2)n[nH]1	39.7 µM	28.4 µM
CSc1nnc(CN(C)CCO)s1	56.6 µM	> 501 µM
CC(NC(=O)c1ccc(Cl)c(I)c1)C(=O)N(C)C (configuration not stated)	> 501 µM	> 501 µM
CCC(N)C(=O)Nc1ccc2c(c1)CCC2 (configuration not stated)	176 µM	170 µM
CC(C)COc1cncc(NC(C)CO)n1 (configuration not stated)	> 501 µM	> 501 µM
O=C(CCc1ccccc1)N1CCCNCC1	> 501 µM	192 µM

SMILES	IC50 [1]	IC50 [2]
Cc1cnn(CCNCc2nccn2C)c1	294 µM	306 µM
CC(NC(=O)CCNC(=O)c1ccco1)c1cccs1 (configuration not stated)	> 501 µM	> 501 µM
CC(=O)NCCCNCc1ccc(Br)c2cccnc12	> 501 µM	278 µM
Cn1c(=O)c2c(nc(Cl)n2CCCC#N)n(C)c1=O	> 501 µM	> 501 µM
COC(=O)c1cccc(OCC(O)C(F)(F)F)c1 (configuration not stated)	> 501 µM	> 501 µM
COc1cccc(N2CCC(N)CC2)c1	213 µM	426 µM
CCc1nc(CN(C)Cc2nnc(-c3cccs3)o2)cs1	8.56 µM	12.2 µM
CCOCC(=O)NCC(Cc1cccc(F)c1)n1cccc1 (configuration not stated)	11.7 µM	10.4 µM
O=C(CSc1nnnn1Cc1cccs1)NC1CC1	216 µM	492 µM
Cc1ccc(C(N)=O)cc1NCC(C)C	> 501 µM	> 501 µM
O=C(CN1CCNCC1)c1ccco1	186 µM	239 µM
CC(C)N(C)S(=O)(=O)N(C)Cc1ccc(Br)o1	394 µM	204 µM
NCC(CO)Cc1ccc(F)c(Br)c1 (configuration not stated)	249 µM	375 µM
COCCCOc1ccc2c(c1)OCCO2	109 µM	92.8 µM
COCc1ccc(SCC(=O)N(C)C)cc1	> 501 µM	> 501 µM
Cc1n[nH]c(C)c1CN(C)C(C(=O)O)c1c(F)cccc1OC(C)C (configuration not stated)	> 50.1 µM	> 50.1 µM
CC(C)CC(O)C(=O)NCc1cc2ccccc2[nH]1 (configuration not stated)	> 501 µM	> 501 µM
CNc1cc2c(nn1)CCN(C(=O)c1cccc3c1OCCO3)C2	> 50.1 µM	> 50.1 µM
Cc1nc2c(c(NCc3nc4ccccc4s3)n1)CCNCC2	45.8 µM	23.7 µM
CCn1nc(C)c2nc(C)nc(NCCc3ccccc3)c21	> 50.1 µM	32.5 µM
Cc1cc(C)c(C#N)c(N2CCC(Cc3ccccc3)CC2)n1	> 50.1 µM	> 50.1 µM
COc1ncccc1C(=O)NCCc1cccs1	285 µM	347 µM

SMILES	IC50 [1]	IC50 [2]
O=C(CNCC1CC1)Nc1ccc(F)cc1	> 501 µM	215 µM
CC(C)CC1CCN(C(=O)CCn2cnnn2)C1 (configuration not stated)	77.2 µM	28.3 µM
CC(C)C(NS(=O)(=O)N1CCOCC1)c1ccccc1 (configuration not stated)	> 501 µM	> 501 µM
Cc1ccc(Cl)c(NC(=O)NC2(C)CCOC2)c1 (configuration not stated)	> 50.1 µM	> 50.1 µM
CN(CC1(C)COC1)C(=O)c1cc(-c2cnn(C)c2)nc2ccccc12	> 50.1 µM	> 50.1 µM
O=C(CSCc1ccc(Cl)s1)N1CCOCC1	286 µM	304 µM
COc1ccc([C@H]2C[C@H](N)C2)cc1F	60.7 µM	95 µM
COc1ccccc1OC(C)CN (configuration not stated)	61.1 µM	20.2 µM
N#Cc1ccc(S(=O)(=O)NCCN)cc1C(F)(F)F	223 µM	160 µM
COc1ccc(C(C)CO)cc1 (configuration not stated)	> 501 µM	> 501 µM
Cc1cccc(C[S+]([O-])CC(=O)NCC2CC2)c1 (configuration not stated)	> 501 µM	> 501 µM
CN1CCN(C(=O)CC2Cc3ccccc3C2)CC1	43.7 µM	96 µM
O=c1ccc(Br)cn1Cc1noc(C2CC2)n1	204 µM	78.4 µM
O=C(c1cc(COc2ccc3c(c2)OCO3)[nH]n1)N1CCSCC1	33.5 µM	31.8 µM
CC1Cc2ccccc2N(C(=O)c2csnn2)C1 (configuration not stated)	> 501 µM	> 501 µM
COc1cccc(S(=O)(=O)CCN2CCCC2CO)c1 (configuration not stated)	141 µM	462 µM
CC(C)(C)OC(=O)N1CC(F)(F)CC1CO (configuration not stated)	> 501 µM	> 501 µM
CC(C)NC(=O)CSc1nc(C=Cc2cccs2)n[nH]1	103 µM	122 µM
CCCS(=O)(=O)N(C)Cc1cccc(OCC)n1	> 501 µM	367 µM
O=C(NCCc1c[nH]c2ccccc12)C1(n2cnnn2)CCCCC1	> 50.1 µM	47.6 µM
NC(=O)c1ccc(-c2nc(C3CCCC3)no2)o1	228 µM	338 µM
COc1ccc(NS(=O)(=O)N(C)C)c(Br)c1	> 501 µM	> 501 µM

SMILES	IC50 [1]	IC50 [2]
N#Cc1ccc(NCCC2CCN(CC(F)(F)F)CC2)nc1	14 µM	15.8 µM
CN(C)CCN1CCOCC2(C1)CN(Cc1ccsc1)CCO2 (configuration not stated)	> 50.1 µM	> 50.1 µM
CCc1ccc(S(=O)(=O)N2CC[C@@H](N)C2)cc1CC	> 501 µM	> 501 µM
Cc1cccnc1NCCNC1CSCCSC1	> 501 µM	248 µM
CN(CCC(O)c1ccccc1)C(=O)c1cc(Cl)c[nH]1 (configuration not stated)	485 µM	237 µM
CCS(=O)(=O)NC1CCN(c2cc(Br)ccn2)CC1	> 501 µM	146 µM
NCc1ccc(Cl)cn1	249 µM	324 µM
O=C(NCC1CC1)N1CCN(Cc2ccc3c(c2)OCCO3)CC1	17.9 µM	45.6 µM
COc1ccc(C(=O)NCc2ncnn2C)cc1Br	> 501 µM	326 µM
NC(=O)C(Sc1nnc[nH]1)c1ccc(Br)cc1 (configuration not stated)	> 501 µM	> 501 µM
CCc1ccccc1OCCN(C)C(=O)CN1CCCC1	> 50.1 µM	39.2 µM
Cc1csc(NC(=O)CNC(=O)c2cccs2)n1	> 501 µM	185 µM
CC(C)(N)C(O)c1ccc(Br)cc1 (configuration not stated)	> 501 µM	126 µM
Cc1cc(Cl)ccc1NC(=O)CSc1n[nH]c(N)n1	> 501 µM	> 501 µM
O=C(NCc1ccc2c(c1)OCCCO2)c1cscn1	111 µM	107 µM
CC(C)c1nccn1C(C)C(=O)N1CCN(c2cnccn2)CC1 (configuration not stated)	> 50.1 µM	> 50.1 µM
O=C(CNCC1CC1)Nc1ccccc1	> 501 µM	171 µM
O=C1N(Cc2cccnc2)CCC12CCCN(c1ncccn1)C2 (configuration not stated)	> 50.1 µM	> 50.1 µM
